From ChEMBL document CHEMBL5463729, “Data for DCP probe BAY 1753011” (2023)

Assays:
[1] = target: NUAK family SNF1-like kinase 2 (Homo sapiens) (UniProt Q9H093); experiment: Inhibition of NUAK2(h) at 10.0 µM in the Eurofins Kinase panel; conditions: Compound concentration 10.0 uM
[2] = target: Serine/threonine-protein kinase PRP4 homolog (Homo sapiens) (UniProt Q13523); experiment: Inhibition of PRP4(h) at 10.0 µM in the Eurofins Kinase panel; conditions: Compound concentration 10.0 uM
[3] = target: Dual specificity protein kinase CLK3 (Homo sapiens) (UniProt P49761); experiment: Inhibition of CLK3(h) at 10.0 µM in the Eurofins Kinase panel; conditions: Compound concentration 10.0 uM
[4] = target: Mitogen-activated protein kinase kinase kinase 8 (Homo sapiens) (UniProt P41279); experiment: Inhibition of COT(h) at 10.0 µM in the Eurofins Kinase panel; conditions: Compound concentration 10.0 uM
[5] = target: Serine/threonine-protein kinase WNK4 (Homo sapiens) (UniProt Q96J92); experiment: Inhibition of WNK4(h) at 10.0 µM in the Eurofins Kinase panel; conditions: Compound concentration 10.0 uM
[6] = target: Serine/threonine-protein kinase D3 (Homo sapiens) (UniProt O94806); experiment: Inhibition of PKD3(h) at 10.0 µM in the Eurofins Kinase panel; conditions: Compound concentration 10.0 uM
[7] = target: Wee1-like protein kinase 2 (Homo sapiens) (UniProt P0C1S8); experiment: Inhibition of Wee1B(h) at 10.0 µM in the Eurofins Kinase panel; conditions: Compound concentration 10.0 uM
[8] = target: Casein kinase I isoform gamma-2 (Homo sapiens) (UniProt P78368); experiment: Inhibition of CK1gamma2(h) at 10.0 µM in the Eurofins Kinase panel; conditions: Compound concentration 10.0 uM
[9] = target: D(1A) dopamine receptor (Homo sapiens) (UniProt P21728); conditions: Compound concentration 10.0 uM
Sequence of D(1A) dopamine receptor (Homo sapiens) (P21728 whole entry): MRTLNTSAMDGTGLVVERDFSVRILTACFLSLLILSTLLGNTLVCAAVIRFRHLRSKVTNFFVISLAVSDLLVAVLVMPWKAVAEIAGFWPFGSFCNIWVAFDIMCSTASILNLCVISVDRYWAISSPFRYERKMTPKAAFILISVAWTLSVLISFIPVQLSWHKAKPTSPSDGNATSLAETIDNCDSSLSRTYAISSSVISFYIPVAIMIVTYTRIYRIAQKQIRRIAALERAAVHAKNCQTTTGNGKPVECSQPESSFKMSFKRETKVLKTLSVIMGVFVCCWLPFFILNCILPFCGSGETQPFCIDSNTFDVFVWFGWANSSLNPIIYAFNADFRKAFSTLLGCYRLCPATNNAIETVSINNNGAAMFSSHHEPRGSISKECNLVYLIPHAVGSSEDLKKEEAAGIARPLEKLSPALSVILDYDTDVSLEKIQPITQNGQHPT

[10] = target: Tyrosine-protein kinase HCK (Homo sapiens) (UniProt P08631); experiment: Inhibition of Hck(h) activated at 10.0 µM in the Eurofins Kinase panel; conditions: Compound concentration 10.0 uM
Sequence of Tyrosine-protein kinase HCK (Homo sapiens) (P08631 2-526 limits assumed): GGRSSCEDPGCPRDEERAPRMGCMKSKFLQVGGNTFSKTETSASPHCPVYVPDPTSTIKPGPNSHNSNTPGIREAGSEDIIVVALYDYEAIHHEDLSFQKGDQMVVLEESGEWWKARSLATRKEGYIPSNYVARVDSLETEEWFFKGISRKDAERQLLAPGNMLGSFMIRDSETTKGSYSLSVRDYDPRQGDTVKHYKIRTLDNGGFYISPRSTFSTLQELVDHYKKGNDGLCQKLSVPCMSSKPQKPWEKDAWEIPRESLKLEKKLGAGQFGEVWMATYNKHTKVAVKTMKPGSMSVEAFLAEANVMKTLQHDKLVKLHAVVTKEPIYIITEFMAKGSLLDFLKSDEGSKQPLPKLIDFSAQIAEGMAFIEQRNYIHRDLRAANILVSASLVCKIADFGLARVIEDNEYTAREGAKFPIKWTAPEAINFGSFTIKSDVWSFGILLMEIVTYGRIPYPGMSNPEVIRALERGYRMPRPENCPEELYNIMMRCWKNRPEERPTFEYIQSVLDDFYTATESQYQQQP

Rattus norvegicus = organism: Rattus norvegicus; conditions: Compound concentration 10.0 uM
[11] = target: Dual specificity tyrosine-phosphorylation-regulated kinase 2 (Homo sapiens) (UniProt Q92630); experiment: Inhibition of DYRK2(h) at 10.0 µM in the Eurofins Kinase panel; conditions: Compound concentration 10.0 uM
[12] = target: Endothelin-1 receptor (Homo sapiens) (UniProt P25101); conditions: Compound concentration 10.0 uM
Sequence of Endothelin-1 receptor (Homo sapiens) (P25101 whole entry): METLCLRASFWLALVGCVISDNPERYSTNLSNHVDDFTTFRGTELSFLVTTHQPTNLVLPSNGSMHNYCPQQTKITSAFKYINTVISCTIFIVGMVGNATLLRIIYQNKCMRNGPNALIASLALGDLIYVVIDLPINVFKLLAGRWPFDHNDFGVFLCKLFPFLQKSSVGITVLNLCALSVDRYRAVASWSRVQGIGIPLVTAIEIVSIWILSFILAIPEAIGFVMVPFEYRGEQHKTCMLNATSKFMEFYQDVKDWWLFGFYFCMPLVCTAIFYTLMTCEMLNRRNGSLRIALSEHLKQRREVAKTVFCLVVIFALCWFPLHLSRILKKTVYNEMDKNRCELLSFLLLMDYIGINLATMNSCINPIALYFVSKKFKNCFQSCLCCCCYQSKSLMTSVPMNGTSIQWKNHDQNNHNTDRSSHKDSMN

[13] = target: D(3) dopamine receptor (Homo sapiens) (UniProt P35462); conditions: Compound concentration 10.0 uM
Sequence of D(3) dopamine receptor (Homo sapiens) (P35462 whole entry): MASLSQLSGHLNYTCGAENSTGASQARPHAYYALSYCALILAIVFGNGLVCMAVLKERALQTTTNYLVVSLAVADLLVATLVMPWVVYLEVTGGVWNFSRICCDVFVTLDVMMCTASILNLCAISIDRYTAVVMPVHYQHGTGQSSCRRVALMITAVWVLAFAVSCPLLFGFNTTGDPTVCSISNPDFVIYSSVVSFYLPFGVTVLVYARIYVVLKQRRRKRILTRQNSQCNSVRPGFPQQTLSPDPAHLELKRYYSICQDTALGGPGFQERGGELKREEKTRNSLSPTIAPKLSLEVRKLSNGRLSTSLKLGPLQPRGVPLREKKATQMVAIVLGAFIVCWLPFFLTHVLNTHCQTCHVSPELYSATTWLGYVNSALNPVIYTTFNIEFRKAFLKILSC

[14] = target: Ephrin type-A receptor 5 (Homo sapiens) (UniProt P54756); experiment: Inhibition of EphA5(h) at 10.0 µM in the Eurofins Kinase panel; conditions: Compound concentration 10.0 uM
[15] = target: Ephrin type-A receptor 1 (Homo sapiens) (UniProt P21709); experiment: Inhibition of EphA1(h) at 10.0 µM in the Eurofins Kinase panel; conditions: Compound concentration 10.0 uM
[16] = target: Ephrin type-B receptor 1 (Homo sapiens) (UniProt P54762); experiment: Inhibition of EphB1(h) at 10.0 µM in the Eurofins Kinase panel; conditions: Compound concentration 10.0 uM
[17] = target: Tyrosine-protein kinase ZAP-70 (Homo sapiens) (UniProt P43403); experiment: Inhibition of ZAP-70(h) at 10.0 µM in the Eurofins Kinase panel; conditions: Compound concentration 10.0 uM
[18] = target: Insulin receptor (Homo sapiens) (UniProt P06213); experiment: Inhibition of IR(h) at 10.0 µM in the Eurofins Kinase panel; conditions: Compound concentration 10.0 uM
[19] = target: T1, Vasopressin V1b receptor (Homo sapiens) (UniProt P47901); experiment: Inhibition of Vasopressin V1B at 10 µM in the Eurofins-Panlabs radioligand binding assay (Eurofins_assay_287560); design: ligand concentration 1 nM
T1 sequence (whole entry): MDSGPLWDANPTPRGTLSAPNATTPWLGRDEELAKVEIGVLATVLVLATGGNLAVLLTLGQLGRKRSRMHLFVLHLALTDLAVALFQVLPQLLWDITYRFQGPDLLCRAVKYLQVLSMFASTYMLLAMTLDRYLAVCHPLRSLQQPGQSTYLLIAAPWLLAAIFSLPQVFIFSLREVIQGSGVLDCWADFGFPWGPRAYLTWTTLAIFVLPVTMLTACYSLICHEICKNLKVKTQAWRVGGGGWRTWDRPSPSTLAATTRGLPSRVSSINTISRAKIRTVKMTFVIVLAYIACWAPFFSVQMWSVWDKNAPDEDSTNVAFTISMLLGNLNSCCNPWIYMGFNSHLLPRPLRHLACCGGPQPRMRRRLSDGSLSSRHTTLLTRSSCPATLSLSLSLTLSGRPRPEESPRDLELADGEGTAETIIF

[20] = target: 5'-AMP-activated protein kinase catalytic subunit alpha-1 (Homo sapiens) (UniProt Q13131); experiment: Inhibition of AMPKalpha1(h) at 10.0 µM in the Eurofins Kinase panel; conditions: Compound concentration 10.0 uM
[21] = target: Serine/threonine-protein kinase PLK2 (Homo sapiens) (UniProt Q9NYY3); experiment: Inhibition of Snk(h) at 10.0 µM in the Eurofins Kinase panel; conditions: Compound concentration 10.0 uM
[22] = target: Tyrosine-protein kinase Mer (Homo sapiens) (UniProt Q12866); experiment: Inhibition of Mer(h) at 10.0 µM in the Eurofins Kinase panel; conditions: Compound concentration 10.0 uM
[23] = target: Interleukin-1 receptor-associated kinase 1 (Homo sapiens) (UniProt P51617); experiment: Inhibition of IRAK1(h) at 10.0 µM in the Eurofins Kinase panel; conditions: Compound concentration 10.0 uM
[24] = target: Serine/threonine-protein kinase 26 (Homo sapiens) (UniProt Q9P289); experiment: Inhibition of MST4(h) at 10.0 µM in the Eurofins Kinase panel; conditions: Compound concentration 10.0 uM
Sequence of Serine/threonine-protein kinase 26 (Homo sapiens) (Q9P289 2-416 limits assumed): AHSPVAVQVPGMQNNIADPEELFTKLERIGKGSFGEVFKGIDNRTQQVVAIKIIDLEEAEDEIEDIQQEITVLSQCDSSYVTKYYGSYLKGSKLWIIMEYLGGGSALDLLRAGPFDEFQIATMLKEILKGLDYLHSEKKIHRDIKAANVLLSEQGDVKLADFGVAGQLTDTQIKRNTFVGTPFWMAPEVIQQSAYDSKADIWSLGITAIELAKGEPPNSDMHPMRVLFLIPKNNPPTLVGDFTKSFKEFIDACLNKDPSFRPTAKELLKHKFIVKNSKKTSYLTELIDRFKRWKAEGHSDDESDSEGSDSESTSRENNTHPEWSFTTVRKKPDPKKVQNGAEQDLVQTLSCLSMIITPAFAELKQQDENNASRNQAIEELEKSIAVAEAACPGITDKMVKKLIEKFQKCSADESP

[25] = target: Adenosine receptor A2a (Homo sapiens) (UniProt P29274); conditions: Compound concentration 10.0 uM
Sequence of Adenosine receptor A2a (Homo sapiens) (P29274 whole entry): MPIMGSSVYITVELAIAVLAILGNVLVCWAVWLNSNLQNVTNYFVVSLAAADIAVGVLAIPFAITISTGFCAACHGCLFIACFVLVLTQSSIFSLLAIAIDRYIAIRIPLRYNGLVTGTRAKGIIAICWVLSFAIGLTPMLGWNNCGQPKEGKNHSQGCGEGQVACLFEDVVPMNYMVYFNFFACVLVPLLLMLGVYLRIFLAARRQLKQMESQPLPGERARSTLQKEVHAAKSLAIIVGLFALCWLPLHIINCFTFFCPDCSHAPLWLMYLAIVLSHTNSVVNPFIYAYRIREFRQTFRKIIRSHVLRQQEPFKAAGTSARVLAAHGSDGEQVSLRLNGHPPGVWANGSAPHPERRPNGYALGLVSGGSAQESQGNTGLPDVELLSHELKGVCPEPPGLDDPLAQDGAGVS

[26] = target: Serine/threonine-protein kinase LATS2 (Homo sapiens) (UniProt Q9NRM7); experiment: Inhibition of LATS2(h) at 10.0 µM in the Eurofins Kinase panel; conditions: Compound concentration 10.0 uM
Sequence of Serine/threonine-protein kinase LATS2 (Homo sapiens) (Q9NRM7 whole entry): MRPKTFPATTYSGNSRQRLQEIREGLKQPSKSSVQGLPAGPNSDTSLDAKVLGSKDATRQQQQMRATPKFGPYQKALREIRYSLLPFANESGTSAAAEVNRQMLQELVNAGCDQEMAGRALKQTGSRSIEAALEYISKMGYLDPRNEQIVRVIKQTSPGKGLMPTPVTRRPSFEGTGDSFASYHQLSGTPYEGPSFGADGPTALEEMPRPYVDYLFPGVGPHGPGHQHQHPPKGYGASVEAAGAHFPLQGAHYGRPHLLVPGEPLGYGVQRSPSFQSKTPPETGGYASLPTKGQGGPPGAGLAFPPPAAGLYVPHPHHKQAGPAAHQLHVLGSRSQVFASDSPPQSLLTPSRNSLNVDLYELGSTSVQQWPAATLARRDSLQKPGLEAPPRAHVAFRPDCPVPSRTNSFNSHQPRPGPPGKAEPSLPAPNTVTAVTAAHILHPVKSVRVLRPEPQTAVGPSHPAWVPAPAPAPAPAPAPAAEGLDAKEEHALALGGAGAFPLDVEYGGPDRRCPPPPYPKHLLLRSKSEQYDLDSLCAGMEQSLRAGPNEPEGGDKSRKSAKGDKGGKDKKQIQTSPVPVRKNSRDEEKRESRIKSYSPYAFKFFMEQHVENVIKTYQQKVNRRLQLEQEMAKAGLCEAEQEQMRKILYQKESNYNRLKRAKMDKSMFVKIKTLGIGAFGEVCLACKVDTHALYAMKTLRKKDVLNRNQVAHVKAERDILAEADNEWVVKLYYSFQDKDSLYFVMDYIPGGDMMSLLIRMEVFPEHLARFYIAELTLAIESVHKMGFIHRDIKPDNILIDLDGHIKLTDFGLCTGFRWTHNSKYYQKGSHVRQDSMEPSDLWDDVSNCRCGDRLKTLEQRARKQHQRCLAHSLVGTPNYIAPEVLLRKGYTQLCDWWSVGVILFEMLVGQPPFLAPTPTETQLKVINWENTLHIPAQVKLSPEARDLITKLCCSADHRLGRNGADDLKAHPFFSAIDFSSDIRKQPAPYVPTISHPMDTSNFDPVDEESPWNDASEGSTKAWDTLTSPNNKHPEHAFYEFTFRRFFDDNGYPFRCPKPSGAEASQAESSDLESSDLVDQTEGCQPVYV

[27] = target: Death-associated protein kinase 1 (Homo sapiens) (UniProt P53355); experiment: Inhibition of DAPK1(h) at 10.0 µM in the Eurofins Kinase panel; conditions: Compound concentration 10.0 uM
[28] = target: Phosphatidylinositol 4,5-bisphosphate 3-kinase catalytic subunit gamma isoform (Homo sapiens) (UniProt P48736); experiment: Inhibition of PI3 Kinase (p120g)(h) at 10.0 µM in the Eurofins Kinase panel; conditions: Compound concentration 10.0 uM
[29] = target: Serine/threonine-protein kinase haspin (Homo sapiens) (UniProt Q8TF76); experiment: Inhibition of Haspin(h) at 10.0 µM in the Eurofins Kinase panel; conditions: Compound concentration 10.0 uM
Sequence of Serine/threonine-protein kinase haspin (Homo sapiens) (Q8TF76 whole entry): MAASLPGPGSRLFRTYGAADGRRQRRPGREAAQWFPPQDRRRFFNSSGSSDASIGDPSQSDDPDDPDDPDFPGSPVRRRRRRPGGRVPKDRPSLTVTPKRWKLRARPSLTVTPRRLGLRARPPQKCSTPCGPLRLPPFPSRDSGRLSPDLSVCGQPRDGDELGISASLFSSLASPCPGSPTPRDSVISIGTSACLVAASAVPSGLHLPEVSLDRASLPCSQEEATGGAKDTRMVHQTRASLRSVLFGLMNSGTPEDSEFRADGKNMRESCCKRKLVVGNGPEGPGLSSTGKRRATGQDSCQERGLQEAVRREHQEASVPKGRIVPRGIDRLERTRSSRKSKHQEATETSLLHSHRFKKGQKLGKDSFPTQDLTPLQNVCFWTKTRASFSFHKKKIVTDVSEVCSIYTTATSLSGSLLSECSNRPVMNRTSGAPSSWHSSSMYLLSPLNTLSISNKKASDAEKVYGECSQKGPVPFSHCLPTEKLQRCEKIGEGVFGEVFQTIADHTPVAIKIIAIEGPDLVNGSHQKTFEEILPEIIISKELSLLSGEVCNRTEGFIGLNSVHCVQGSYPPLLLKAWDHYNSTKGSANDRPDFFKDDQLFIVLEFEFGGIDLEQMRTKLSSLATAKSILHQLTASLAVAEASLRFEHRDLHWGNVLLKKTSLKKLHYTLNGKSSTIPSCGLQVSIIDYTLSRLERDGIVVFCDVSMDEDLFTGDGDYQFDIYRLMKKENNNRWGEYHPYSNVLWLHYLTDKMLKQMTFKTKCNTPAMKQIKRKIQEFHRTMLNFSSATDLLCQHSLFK

[30] = target: Serine/threonine-protein kinase 32B (Homo sapiens) (UniProt Q9NY57); experiment: Inhibition of STK32B(h) at 10.0 µM in the Eurofins Kinase panel; conditions: Compound concentration 10.0 uM
[31] = target: Beta-1 adrenergic receptor (Homo sapiens) (UniProt P08588); conditions: Compound concentration 10.0 uM
Sequence of Beta-1 adrenergic receptor (Homo sapiens) (P08588 whole entry, looked up): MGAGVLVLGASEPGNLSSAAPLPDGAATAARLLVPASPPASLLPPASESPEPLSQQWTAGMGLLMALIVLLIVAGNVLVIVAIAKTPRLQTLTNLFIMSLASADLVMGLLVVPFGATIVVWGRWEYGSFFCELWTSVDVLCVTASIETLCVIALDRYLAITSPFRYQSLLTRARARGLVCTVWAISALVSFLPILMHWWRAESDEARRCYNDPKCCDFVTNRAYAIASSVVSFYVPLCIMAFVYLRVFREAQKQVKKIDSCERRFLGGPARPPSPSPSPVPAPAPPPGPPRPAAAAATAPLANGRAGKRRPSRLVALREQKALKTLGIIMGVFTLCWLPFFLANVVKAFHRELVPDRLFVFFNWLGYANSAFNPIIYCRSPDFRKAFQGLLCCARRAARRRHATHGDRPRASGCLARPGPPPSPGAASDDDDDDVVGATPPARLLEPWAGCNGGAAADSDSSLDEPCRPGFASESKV

[32] = target: Serine/threonine-protein kinase BRSK1 (Homo sapiens) (UniProt Q8TDC3); experiment: Inhibition of BrSK1(h) at 10.0 µM in the Eurofins Kinase panel; conditions: Compound concentration 10.0 uM
[33] = target: Protein-tyrosine kinase 2-beta (Homo sapiens) (UniProt Q14289); experiment: Inhibition of Pyk2(h) at 10.0 µM in the Eurofins Kinase panel; conditions: Compound concentration 10.0 uM

| Compound | inhibition [1] [%] | inhibition [2] [%] | inhibition [3] [%] | inhibition [4] [%] | inhibition [5] [%] | inhibition [6] [%] | inhibition [7] [%] | inhibition [8] [%] | inhibition [9] [%] | inhibition [10] [%] | inhibition (Rattus norvegicus) [%] | inhibition [11] [%] | inhibition [12] [%] | inhibition [13] [%] | inhibition [14] [%] | inhibition [15] [%] | inhibition [16] [%] | inhibition [17] [%] | inhibition [18] [%] | inhibition ([19]; Compound concentration 10.0 uM) [%] | further results |
| --- | --- | --- | --- | --- | --- | --- | --- | --- | --- | --- | --- | --- | --- | --- | --- | --- | --- | --- | --- | --- | --- |
| O=c1n(Cc2cncn2-c2cccc(Cl)c2)nc(-c2ccc(Cl)cc2)n1C[C@H](O)C(F)(F)F | -1.01 | -1.84 | 1.4 | -1.4 | 2.45 | 1.68 | 7.62 | -1.25 | -6 | -9.4 | 9 | -8.9 | -3 | 18.3 | -7.8 | 2.94 | 9.79 | 8.99 | -7.3 | 7 | inhibition [20]: -6.67%; inhibition [21]: 0.93%; inhibition [22]: -6.11%; inhibition [23]: 1.24%; inhibition [24]: -4.66%; inhibition [25]: 1%; inhibition [26]: 5.08%; inhibition [27]: -5.66%; inhibition [28]: 9.44%; inhibition [29]: -2.75%; inhibition [30]: -7.15%; inhibition [31]: 5%; inhibition [32]: 4.95%; inhibition [33]: 3.57% |
| C[C@H](O)c1nc(Cn2nc(-c3ccc(Cl)cc3)n(C[C@H](O)C(F)(F)F)c2=O)nn1-c1cccc(Cl)c1 [PECAVAPTAN] | 4.99 | 6.82 | -0.38 | -0.64 | 10.5 | -0.82 | 7.48 | 4.6 | 1 | -3.97 | 8 | -0.76 | 18 | 19.7 | -3.72 | 7.71 | 4.68 | 2.69 | -5.21 | 43 | inhibition ([19]; Compound concentration 0.001 uM): 6%; inhibition ([19]; Compound concentration 0.01 uM): -6%; inhibition ([19]; Compound concentration 0.1 uM): -5%; inhibition ([19]; Compound concentration 1.0 uM): 5%; inhibition [20]: -4.1%; inhibition [21]: -4.51%; inhibition [22]: -0.91%; inhibition [23]: -0.22%; inhibition [24]: -2.72%; inhibition [25]: 4%; inhibition [26]: 3.15%; inhibition [27]: -1.83%; inhibition [28]: 14.1%; inhibition [29]: 2.09%; inhibition [30]: -0.99%; inhibition [31]: 5%; inhibition [32]: -5.39%; inhibition [33]: -1.95% |
